Here are results for one substance from patent US20210322469A1, “ZINC AND COPPER FOR THE PROPHYLAXIS AND TREATMENT OF COVID-19” (Regents of the University of Minnesota, priority 2020, published 2021).

Where two headings read alike, the source gives them in different places.

One assay relates to SARS-CoV-2. The format is in vivo. The following applies: patients receiving zinc prophylactically for AMD or for treatment of AMD.
Assay [1] has as its target angiotensin converting enzyme 2 (ACE2) (Homo sapiens, UniProt Q9BYF1). The following applies: Speth et al. 2014, cited from earlier work.

Chain of angiotensin converting enzyme 2 (ACE2) (Q9BYF1 18-805): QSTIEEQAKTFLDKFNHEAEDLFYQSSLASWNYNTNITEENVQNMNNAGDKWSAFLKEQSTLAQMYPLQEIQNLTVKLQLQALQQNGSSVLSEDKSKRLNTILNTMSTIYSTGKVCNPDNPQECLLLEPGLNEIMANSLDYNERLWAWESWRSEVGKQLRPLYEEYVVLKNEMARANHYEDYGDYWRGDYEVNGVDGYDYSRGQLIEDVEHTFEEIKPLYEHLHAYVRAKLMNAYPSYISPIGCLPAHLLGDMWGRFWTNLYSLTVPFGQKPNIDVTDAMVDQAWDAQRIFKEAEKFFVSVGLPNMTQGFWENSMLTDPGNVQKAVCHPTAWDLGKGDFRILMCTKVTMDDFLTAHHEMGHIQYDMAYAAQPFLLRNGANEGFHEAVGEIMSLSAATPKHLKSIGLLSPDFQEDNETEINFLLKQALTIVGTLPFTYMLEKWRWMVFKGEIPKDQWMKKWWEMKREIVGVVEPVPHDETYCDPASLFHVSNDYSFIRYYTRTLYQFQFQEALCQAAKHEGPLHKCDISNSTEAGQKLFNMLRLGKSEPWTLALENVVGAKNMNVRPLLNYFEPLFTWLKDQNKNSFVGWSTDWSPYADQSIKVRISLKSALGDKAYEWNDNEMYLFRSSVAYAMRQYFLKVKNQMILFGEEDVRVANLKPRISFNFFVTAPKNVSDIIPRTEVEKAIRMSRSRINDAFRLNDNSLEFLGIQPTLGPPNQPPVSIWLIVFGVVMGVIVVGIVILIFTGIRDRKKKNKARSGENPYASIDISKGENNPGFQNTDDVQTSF

zinc: the COVID-19-related deaths result in the assay with SARS-CoV-2 is “no COVID-19-related deaths”. The “inhibition of ACE2 function” value is on record as “inhibitor of ACE2 function” in assay [1] and “can inhibit the function of ACE2” in assay [1] (listed as Zinc).
